Laboratory results taken from patent publication US20190167660A1, “PPAR-gamma AGONIST FOR TREATMENT OF BONE DISORDERS” (InteKrin Therapeutics, Inc., priority 2016, published 2019).

What was measured:
adiponectin [1] = assay: randomized, double-blind, placebo-controlled, 24-week study in subjects with type 2 diabetes: adiponectin levels; type: in vivo, human; settings: for Mean Change in adiponectin from baseline (Week 0) to Week 24: LOCF, type 2 diabetes subjects
Protocol: A randomized, double-blind, placebo-controlled, 24-week study was conducted in which adiponectin levels were measured. […] 367 subjects with type 2 diabetes (TD2)—a disease in which patient adiponectin levels are reduced—were randomly assigned to receive either 0.5, 1, 2 or 3 milligrams (“mg”) of INT131 besylate, 45 mg of pioglitazone or placebo daily for 24 weeks. To measure adiponectin levels blood was drawn at Weeks 0, 2, 6, 12 and 24.
At baseline (Week 0) mean adiponectin levels were 1.94 micrograms per milliliter (“μg/mL”). The mean adiponectin levels at baseline and Week 24, and the mean change in adiponectin levels from baseline (Week 0) to Week 24 are disclosed in Table 1, below. The standard deviation for samples tested in each group is listed in (parenthesis). Mean baseline adiponectin values were similar for the treatment groups.

HbA1c [2] = assay: 24-week study in subjects with type 2 diabetes: HbA1c levels; type: in vivo, human; settings: 2 and 3 mg doses of INT131, daily for 24 weeks
adiponectin [3] = assay: 14-day study in healthy subjects: serum adiponectin levels; type: in vivo, human
Protocol: (§1) A study was conducted to determine the effect of INT131 on serum adiponectin levels. Thirty healthy subjects were randomly selected to receive either placebo, 0.1 mg INT131, 1 mg INT131 or 4 mg INT131 daily for 14 days. To measure adiponectin levels blood was drawn at Days 1, 4, 8 and 14.

adiponectin [4] = assay: Example 3 (INT131 activates bone remodeling): 14-day study in healthy subjects; type: in vivo, human; settings: 0.1 mg INT131 daily for 14 days
Protocol: as §1

[5] = test system: mesenchymal stem cells (MSCs); assay: differentiation of mesenchymal stem cells into osteoblasts / adipocytes; type: cell-based; settings: no method described
HbA1c [6] = settings: DePaoli et al., Diabetes Care 2014; cited from earlier work
[7] = DePaoli et al., Diabetes Care 2014; cited from earlier work
diet-induced obese mice = settings: 10 mg/kg of INT131, Lee et al. 2012; cited from earlier work
[8] = 0.1 mg INT131 daily for 14 days

O=S(=O)(Nc1cc(Cl)c(Oc2cnc3ccccc3c2)c(Cl)c1)c1ccc(Cl)cc1Cl [INT131]
Mean Change in adiponectin from baseline (Week 0) to Week 24 (adiponectin [1]; 0.5 mg INT131 besylate daily): 0.56 µg/mL
Mean Change in adiponectin from baseline (Week 0) to Week 24 (adiponectin [1]; 1 mg INT131 besylate daily): 1.28 µg/mL
treatment comparison with placebo, adiponectin levels (adiponectin [1]; 1 mg, 2 mg and 3 mg doses of INT131, p≤0.0109): statistically significant
Mean Change in adiponectin from baseline (Week 0) to Week 24 (adiponectin [1]; 2 mg INT131 besylate daily): 3.27 µg/mL
Mean Change in adiponectin from baseline (Week 0) to Week 24 (adiponectin [1]; 3 mg INT131 besylate daily): 3.83 µg/mL
reduction of HbA1c levels compared with 45 mg of pioglitazone (HbA1c [2]): at least as well
change in adiponectin levels over placebo (adiponectin [3]; [8]): no significant change
change in serum adiponectin levels from Day 1 to Day 14 (adiponectin [3]; [8]): no significant change
change in serum adiponectin levels over placebo (adiponectin [3]; 1 mg or 4 mg INT131 daily for 14 days): significant change
change from Day 1 to Day 14 (sentence breaks off) (adiponectin [4]): no significant
differentiation of mesenchymal stem cells (MSCs) into osteoblasts [5]: promotes
increase of adipocytes [5]: does not result in an increase
efficacy in reducing HbA1c levels compared with 45 mg of pioglitazone (HbA1c [6]): equally efficacious
edema, weight gain and hemodilution compared with subjects taking pioglitazone [7]: less
effect on bone mass (diet-induced obese mice): does not affect bone mass

CCc1ccc(CCOc2ccc(CC3SC(=O)NC3=O)cc2)nc1 (stereo not shown) [pioglitazone, reference compound]
Mean Change in adiponectin from baseline (Week 0) to Week 24 (adiponectin [1]; 45 mg pioglitazone daily): 2.96 µg/mL
